According to patent publication US5861405A, “S-substituted 1,3,7-trialkyl-xanthine derivatives” (priority 1994, dated 1999):
In brackets after ≈: the same amount, converted by molar mass. Several values for one entry are separate records, joined by “and”; a condition that tells them apart may be missing. Identical values can stand only once. Like-named read-outs stand apart in the source and are kept apart here.

Experiments:
[1] = tested on: locomotor activity in mice; assay: Locomotor activity in mice, open field (Digiscan activity monitor); type: in vivo, mouse; settings: for locomotor stimulation, in words: mice
Experimental: Adult male mice of the NIH (Swiss) strain weighing 25-30 g were housed in groups of 10 animals per cage with a light-dark cycle of 12:12 h. The animals were given free access to standard pellet food and water and were acclimatized to laboratory conditions for 24 h prior to testing. Each animal was used only once in the activity monitor.
Locomotor activity of individual animals was studied in an open field using a Digiscan activity monitor (Omnitech Electronics Inc., Columbus, Ohio) equipped with an IBM-compatible computer. The computer-tabulated measurements represent multivariate locomotor analysis with specific measures, such as simultaneous measurements of ambulatory, rearing, stereotypical, and rotational behaviors. Data were collected in the morning, for three consecutive intervals of 10 minutes each, and analyzed separately and as a group. Statistical analysis was performed using the Student t test. […] Drugs were administered i.p. in a volume corresponding to 5 ml/kg body weight. Where applicable, the antagonist was injected 10 minutes before the agonist. ED50 values were determined using regression analysis on the InPlot software (GraphPAD, San Diego, Calif.).

locomotor activity = settings: i.p., previously determined; cited from earlier work
Aqueous solubility = settings: for solubility kinetic: water, 0.5% dmso, organic solvent or mixture
Experimental: To avoid precipitation associated with serial aqueous dilutions, the only point at which DMSO was added to aqueous medium was immediately prior to the incubation.

[2] = target: T1, rat A1 cortical receptors (Rattus norvegicus, UniProt P25099); assay: Radioligand binding, [3H]N6-phenylisopropyladenosine ([3H]PIA), rat cortical A1 receptors
T1 construct: Rat cerebral cortical membranes and striatal membranes were prepared; from tissue; host or cells: rat cerebral cortex membranes
T1 sequence (P25099 1-326): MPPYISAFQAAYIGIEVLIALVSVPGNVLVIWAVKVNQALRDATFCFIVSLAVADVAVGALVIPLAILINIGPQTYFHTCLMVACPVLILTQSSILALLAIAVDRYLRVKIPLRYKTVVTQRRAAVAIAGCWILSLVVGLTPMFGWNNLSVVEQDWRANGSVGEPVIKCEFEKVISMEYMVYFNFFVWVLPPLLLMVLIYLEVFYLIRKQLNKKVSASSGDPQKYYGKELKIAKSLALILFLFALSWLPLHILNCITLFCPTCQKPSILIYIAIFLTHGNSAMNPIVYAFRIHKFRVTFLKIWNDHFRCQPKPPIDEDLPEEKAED
Experimental: (§1) The 1,3,7-trialkyl-8-substituted xanthine compounds of the present invention were tested in a radioligand binding assay for affinity at adenosine receptors in rat brain membranes.
The final concentration of DMSO in the assay medium was generally 2%.
Membranes (~100 μg protein per tube) were incubated for 1.5 h at 37° C. in a total volume of 0.5 ml of 50 mM Tris hydrochloride, at pH 7.4. Test drugs were dissolved in DMSO and added in 10 μl aliquots, resulting in a final DMSO concentration of 2%. Bound and free radioligand were separated by addition of 3 ml of a buffer containing 50 mM Tris hydrochloride, pH 7.4, at 5° C., followed by vacuum filtration using a Brandel Cell Harvester (Brandel, Gaithersburg, Md.) and a Whatman GF/B glass fiber filter with additional washes totaling 9 ml of buffer. Non-specific binding was determined with 10 μM 2-chloroadenosine.
(§2) At least six different concentrations spanning three orders of magnitude, adjusted appropriately for the IC50 of each compound, were used.

[3] = target: T2, rat striatal A2a receptors (Rattus norvegicus, UniProt P30543); assay: Radioligand binding, [3H]CGS 21680, rat striatal A2a receptors; design: Rat cerebral cortical membranes and striatal membranes were prepared; from tissue; host or cells: rat striatal membranes; settings: for A1/A2a ratio: ratio of Ki values
Experimental: as §1
The stock solutions were diluted with DMSO to a concentration of ≥0.1 mM prior to adding to the aqueous medium. The final concentration of DMSO in the assay medium was generally 2%.
Test drugs were dissolved in DMSO and added in 10 μl aliquots, resulting in a final DMSO concentration of 2%. Non-specific binding was defined using 20 μM 2-chloroadenosine. Filtration was carried out using a Brandel Cell Harvester, as above, using Tris HCl/MgCl2 as the washing buffer.
as §2

[4] = target: A2 receptors, rat striatum; settings: vs [3H]NECA in rat striatum; read-out: Ki (A2a), Shimada et al.; cited from earlier work
[5] = target: A1 receptors, guinea pig brain; settings: vs [3H]CHA in guinea pig brain; read-out: Ki (A1), Shimada et al.; cited from earlier work
[6] = target: T2, rat striatal A2a receptors; assay: biochemical
[7] = target: T3, A2a receptors, rat striatum (Rattus norvegicus, UniProt P30543); settings: four species (rat, guinea pig, bovine, rabbit)
[8] = target: T3, A2a receptors, rat striatum; assay: biochemical
[9] = target: T4, A1 receptors, rat striatum (Rattus norvegicus, UniProt P25099); assay: Competition binding vs [3H]PIA, rat striatal membranes
T4 construct: Striatal tissue was isolated by dissection of rabbit, bovine, and rat brain; tissue Pel-Freeze Biologicals Co; host or cells: rat striatal membranes (frozen brain)
T4 sequence (P25099 1-326): T1 sequence (P25099 1-326)

[10] = target: T5, A1 receptors, bovine striatum (Bos taurus, UniProt P28190); assay: Competition binding vs [3H]PIA, bovine striatal membranes
T5 construct: Striatal tissue was isolated by dissection of rabbit, bovine, and rat brain; tissue Pel-Freeze Biologicals Co; host or cells: bovine striatal membranes (frozen brain)

[11] = target: T6, A1 receptors, rabbit striatum (Oryctolagus cuniculus, UniProt P34970); assay: Competition binding vs [3H]PIA, rabbit striatal membranes
T6 construct: Striatal tissue was isolated by dissection of rabbit, bovine, and rat brain; tissue Pel-Freeze Biologicals Co; host or cells: rabbit striatal membranes (frozen brain)

[12] = target: T2, rat striatal A2a receptors
[13] = target: T7, A1 receptors, guinea pig striatum (Cavia porcellus, UniProt P47745); assay: Competition binding vs [3H]PIA, guinea pig striatal membranes
T7 construct: guinea pig, bovine, and rabbit striatal membranes; tissue Keystone Biologicals; host or cells: guinea pig striatal membranes (frozen brain)

[14] = tested on: A1 receptors, rat striatal membranes; assay: Irreversible inhibition after preincubation and washing, [3H]PIA, rat striatal membranes; type: binding; settings: preincubation with 20 μM ISC, 60 min
Experimental: Striatal membranes were treated with inhibitor as follows.

[15] = target: A2a receptors, rabbit striatum (Oryctolagus cuniculus, UniProt G1SVQ2); assay: biochemical
rabbit A2a receptors = rabbit A2a receptors (Oryctolagus cuniculus, UniProt G1SVQ2); assay: biochemical
[16] = target: A2a receptors, bovine striatum (Bos taurus, UniProt E1BKU0); assay: biochemical
bovine A2a receptors = bovine A2a receptors (Bos taurus, UniProt E1BKU0); assay: biochemical
[17] = Table I, vs [3H]PIA (1 nM), rat A1 receptors, read-out: Ki (A1)
[18] = Ki value / affinity at A2 receptors
[19] = Table I, vs [3H]CGS21680 (5 nM), rat striatal A2 receptors, read-out: Ki (A2a)

T3 sequence (P30543 whole entry): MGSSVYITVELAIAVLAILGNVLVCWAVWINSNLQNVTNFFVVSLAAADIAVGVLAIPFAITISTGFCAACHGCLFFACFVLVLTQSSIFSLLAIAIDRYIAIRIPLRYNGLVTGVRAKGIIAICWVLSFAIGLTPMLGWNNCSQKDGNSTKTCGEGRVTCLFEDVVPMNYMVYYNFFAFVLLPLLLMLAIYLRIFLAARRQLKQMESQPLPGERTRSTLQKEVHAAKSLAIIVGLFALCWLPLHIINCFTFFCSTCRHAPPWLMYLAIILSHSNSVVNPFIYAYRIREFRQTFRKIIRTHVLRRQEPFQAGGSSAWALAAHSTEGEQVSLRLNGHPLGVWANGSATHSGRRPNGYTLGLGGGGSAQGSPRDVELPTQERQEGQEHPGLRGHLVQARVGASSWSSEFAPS
T2 sequence (P30543 whole entry): as above
A2a receptors, rabbit striatum, sequence (G1SVQ2 1-409): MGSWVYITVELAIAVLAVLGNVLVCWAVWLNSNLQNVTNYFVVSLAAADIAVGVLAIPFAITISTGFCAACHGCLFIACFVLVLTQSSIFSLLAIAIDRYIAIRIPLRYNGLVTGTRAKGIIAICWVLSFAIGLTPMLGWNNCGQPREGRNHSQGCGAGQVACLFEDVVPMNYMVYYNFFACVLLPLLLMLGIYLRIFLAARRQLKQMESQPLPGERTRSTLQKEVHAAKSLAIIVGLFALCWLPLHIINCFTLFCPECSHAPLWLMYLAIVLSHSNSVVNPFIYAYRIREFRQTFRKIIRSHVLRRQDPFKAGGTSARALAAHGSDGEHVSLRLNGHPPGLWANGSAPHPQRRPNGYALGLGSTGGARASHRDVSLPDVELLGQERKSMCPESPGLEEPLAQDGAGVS
bovine A2a receptors, sequence (E1BKU0 1-401): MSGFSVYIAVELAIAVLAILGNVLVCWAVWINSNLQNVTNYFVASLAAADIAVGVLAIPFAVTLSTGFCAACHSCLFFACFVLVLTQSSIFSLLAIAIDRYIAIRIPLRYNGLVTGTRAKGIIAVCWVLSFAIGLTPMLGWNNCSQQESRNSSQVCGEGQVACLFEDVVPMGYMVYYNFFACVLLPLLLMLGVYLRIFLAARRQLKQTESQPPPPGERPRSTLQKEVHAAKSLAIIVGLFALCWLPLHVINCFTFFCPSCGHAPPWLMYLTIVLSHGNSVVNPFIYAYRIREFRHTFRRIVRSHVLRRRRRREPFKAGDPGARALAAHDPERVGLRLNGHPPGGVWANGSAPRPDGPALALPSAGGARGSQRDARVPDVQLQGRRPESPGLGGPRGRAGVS
A2a receptors, bovine striatum, sequence (E1BKU0 1-401): as above
T7 sequence (P47745 whole entry): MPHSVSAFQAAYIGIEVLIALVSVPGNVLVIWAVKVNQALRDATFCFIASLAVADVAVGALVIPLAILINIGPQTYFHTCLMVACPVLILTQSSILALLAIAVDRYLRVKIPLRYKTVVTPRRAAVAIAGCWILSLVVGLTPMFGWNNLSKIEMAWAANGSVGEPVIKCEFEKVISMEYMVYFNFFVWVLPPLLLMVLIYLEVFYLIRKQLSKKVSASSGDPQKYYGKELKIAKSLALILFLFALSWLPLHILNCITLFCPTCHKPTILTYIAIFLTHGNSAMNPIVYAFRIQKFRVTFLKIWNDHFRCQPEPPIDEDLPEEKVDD
T5 sequence (P28190 whole entry): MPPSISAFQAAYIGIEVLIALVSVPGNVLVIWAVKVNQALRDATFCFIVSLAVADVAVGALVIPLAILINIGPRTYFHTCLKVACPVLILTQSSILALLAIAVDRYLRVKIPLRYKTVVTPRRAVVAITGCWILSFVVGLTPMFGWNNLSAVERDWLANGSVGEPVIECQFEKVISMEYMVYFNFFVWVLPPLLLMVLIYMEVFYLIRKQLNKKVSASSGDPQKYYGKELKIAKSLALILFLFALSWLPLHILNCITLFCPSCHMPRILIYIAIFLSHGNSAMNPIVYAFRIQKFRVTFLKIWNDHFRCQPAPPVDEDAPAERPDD
rabbit A2a receptors, sequence (G1SVQ2 1-409): as the sequence (G1SVQ2 1-409) above
T6 sequence (P34970 whole entry): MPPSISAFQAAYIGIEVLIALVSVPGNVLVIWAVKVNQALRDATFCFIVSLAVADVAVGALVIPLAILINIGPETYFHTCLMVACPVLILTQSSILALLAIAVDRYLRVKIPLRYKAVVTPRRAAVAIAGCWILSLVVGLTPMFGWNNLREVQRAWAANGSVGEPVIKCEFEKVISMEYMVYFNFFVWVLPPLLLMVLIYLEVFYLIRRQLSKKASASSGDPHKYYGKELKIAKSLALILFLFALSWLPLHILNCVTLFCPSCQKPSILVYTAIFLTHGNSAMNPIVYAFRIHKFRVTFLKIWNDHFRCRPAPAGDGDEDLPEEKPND

CCNC(=O)[C@H]1O[C@@H](n2cnc3c(N)nc(NCCc4ccc(CCC(=O)NCCN)cc4)nc32)[C@H](O)[C@@H]1O [APEC, 2-[(2-aminoethylamino)-carbonylethylphenylethylamino]-5'-N-ethylcarboxamidoadenosine, reference compound]
total distance traveled ([1]; APEC alone 16 μg/kg, n=13): 2277±229 cm/30 min | ED50 for locomotor depression elicited by APEC ([1]; following 1 mg/kg CSC): 0.19 mg/kg | ED50 for locomotor depression (locomotor activity): 0.016 mg/kg

Cn1c(=O)c2c(nc(/C=C/c3cccc(NC(=O)CCC(=O)O)c3)n2C)n(C)c1=O [Compound 24, 1,3,7-Trimethyl-8-(3-succinylaminostyryl)xanthine]
solubility (Aqueous solubility; 0.1 m k2hpo4): 19 mM | solubility (Aqueous solubility; 0.1 m potassium phosphate, pH 7.4): 19 mM | Ki [2, 17]: 35100 nM | Ki [3, 18]: 134 nM | A1/A2a ratio ([3]; Table I): 250 | Ki [3, 19]: 143 ± 45 nM

CCCn1c(=O)c2[nH]c(/C=C/c3ccc(OC)c(OC)c3)nc2n(CCC)c1=O [Compound 52a]
Ki [4]: 6700 nM | Ki [2, 17]: 71 ± 11 nM | Ki [5]: 1700 nM

Cn1c(=O)c2c(nc(/C=C/c3cccc(N=C=S)c3)n2C)n(C)c1=O [Compound 28e, 1,3,7-trimethyl-8-(3-isothiocyanatostyryl)xanthine]
IC50 [6]: 2700 nM | inhibition at 20 µM ([6]; 1 h, read-out: loss of specific [3H]CGS 21680 binding, preincubation with 20 μM ISC, rat): ~80% | inhibition at 2 µM ([6]; 2 h, read-out: loss of specific [3H]CGS 21680 binding at 2 h, 2 μM ISC, 25° C.): ~55% | Hill coefficients for displacement of [3H]CGS 21680 [7]: ~1 | IC50 [8]: 146 nM | Ki [8]: 111 nM | IC50 ([9]; IC50 (A1), rat, vs [3H]PIA (1 nM)): 42600 nM | IC50 ([9]; IC50 at A1-receptors, rat striatum): 43000 nM | Ki ([9]; Ki value (A1), rat striatum, Table V footnote b): 20300 nM | Ki ([9]; Ki value at A1-receptors, rat striatum): 20000 nM | IC50 [10]: 63400 nM | Ki [2]: 20300 nM | IC50 [11]: 75600 nM | time for inhibition of 50% of final value at 2 h ([12]; 2 μM ISC, 25° C.): Approximately 3 min | regeneration of A2a-receptor binding ([12]; IBMX 100 μM overnight on ISC-treated membranes): did not regenerate any A2a -receptor binding | Ki ([3]; Ki (A2a)): 111 ± 1 nM | IC50 [13]: 51400 nM | loss of [3H]PIA binding [14]: 12±2.9% | IC50 [15]: 413 ± 135 nM | Ki [15]: 347 ± 112 nM | EC50 (rabbit A2a receptors): 10000 nM | IC50 [16]: 516 ± 64 nM | EC50 (bovine A2a receptors): 8000 nM

COc1cc(/C=C/c2nc3c(c(=O)n(C)c(=O)n3C)n2C)cc(OC)c1OC [Compound 44b, 1,3,7-trimethyl-8-(3,4,5-trimethoxy)-styryl-xanthine]
Ki [4]: 18 nM | Ki [2, 17]: 9200 nM | Ki [5]: > 100000 nM

OC[C@H]1O[C@@H](n2cnc3c(NC4CCCCC4)ncnc32)[C@H](O)[C@@H]1O [CHA, N^6 -cyclohexyladenosine, reference compound]
total distance traveled ([1]; CHA control 100 μg/kg i.p., n=9): 2090±438 cm/30 min | ED50 ([1]; Mus musculus, ip, CHA, i.p., read-out: ED50 for locomotor depression): 0.1 mg/kg

CCCn1c(=O)c2c(nc(/C=C/c3ccc(OC)c(OC)c3)n2C)n(CCC)c1=O [Compound 52b]
Ki [4]: 7.8 nM | Ki [2, 17]: 577 ± 42 nM

Cn1c(=O)c2c(nc(/C=C/c3cccc(Cl)c3)n2C)n(C)c1=O [Compound 28a, 1,3,7-trimethyl-8-(3-chlorostyryl) xanthine]
solubility (Aqueous solubility; injection vehicle): < 1000 µg/mL | increase in clockwise and anti-clockwise rotations [1]: 30-60% | effect on locomotor activity of concurrent administration ([1]; APEC 16 μg/kg with CSC 5 mg/kg): no effect on the locomotor activity | reversal of APEC-elicited locomotor depression ([1]; CSC 1 mg/kg i.p., APEC 16 μg/kg): nearly completely reverse the locomotor depression | total distance traveled ([1]; CSC 1.0 mg/kg with CPX […], n=9): 4861±243 cm/30 min | stimulation of locomotor activity over CSC alone ([1]; CSC 1.0 mg/kg with CPX […], p<0.001): 37% | total distance traveled ([1]; CSC 5 mg/kg alone, n=13): 4223±496 cm/30 min | increase in locomotor activity versus APEC alone ([1]; CSC 5 mg/kg with APEC 16 μg/kg): 73% | total distance traveled ([1]; CSC 5 mg/kg with APEC 16 μg/kg, n=14): 3949±284 cm/30 min | total distance traveled ([1]; CSC 5 mg/kg with CHA, n=8): 2029±250 cm/30 min | locomotor stimulation over vehicle control ([1]; CSC 5 mg/kg, 30 min): 22% | effect on locomotor depression elicited by CHA ([1]; CSC 5 mg/kg, CHA 100 μg/kg i.p.): no effect on locomotor depression | increase in locomotor activity versus control ([1]; CSC 5 mg/kg, last 10 minutes of 30 min): 56% | total distance traveled ([1]; CSC alone 1 mg/kg i.p., n=19): 3550±230 cm/30 min | increase in average distance per move ([1]; CSC with CPX): approximately 30% | locomotor stimulation, in words [1]: no significant effect on locomotor activity | Behavioral stimulation ([1]; typical dose 5 (mg/kg, i.p.)): +

Cn1c(=O)c2c(ncn2C)n(C)c1=O [caffeine, 1,3,7-trimethylxanthine, reference compound]
Behavioral stimulation ([1]; mouse, in vivo, ip): +++

CCCn1c(=O)c2[nH]c(C3CCCC3)nc2n(CCC)c1=O [CPX, 8-cyclopentyl-1,3-dipropyl-xanthine, reference compound]
locomotor stimulation, in words [1]: minimal depressant effect on locomotor activity

CCCn1c(=O)c2c(nc(/C=C/c3cc(OC)cc(OC)c3)n2C)n(CCC)c1=O [Compound 53b, 1,3-Dipropyl-7-methyl-8-(3,5-dimethoxystyryl)xanthine]
solubility kinetic (Aqueous solubility; concentration above which compound did not remain dissolved): 0.01 mM (≈ 4.12 µg/mL) | solubility kinetic (Aqueous solubility; theoretical concentration beyond which UV absorption decreases (supersaturation)): 0.02 mM (≈ 8.25 µg/mL) | apparent A1 affinity versus DMSO concentration ([2]; 0.5 and 1% DMSO): somewhat dependent on DMSO concentration | Ki [2, 17]: 2630 nM | selectivity relative to 52b [3]: 5 fold | apparent affinity at A2 receptors versus DMSO concentration ([3]; 0.5% to 6% DMSO): constant within the range of 0.5% to 6% DMSO | Ki [3, 18]: 24 nM and ≤ 50 nM | A1/A2a ratio ([3]; Table I): 110 | Ki [3, 19]: 24 ± 6 nM | A2-selectivity ([3]; rat brain binding, this study): 110 fold

C=CCn1c(=O)c2c(nc(/C=C/c3cc(OC)c(OC)c(OC)c3)n2C)n(CC=C)c1=O [Compound 46]
Ki [4]: 15 nM | Ki [2, 17]: 1930 nM | Ki [5]: > 100000 nM

COc1cc(/C=C/c2nc3c([nH]2)c(=O)n(C)c(=O)n3C)cc(OC)c1OC [Compound 44a]
Ki [4]: 71 nM | Ki [2, 17]: 2280 nM | Ki [5]: > 100000 nM
